Assay results taken from USRE50528E1, “Compounds and compositions for modulating EGFR mutant kinase activities” (Yuhan Corporation, priority 2014, dated 2025).

Columns and labels:
SYK = molecular target: T1, SYK (Homo sapiens, UniProt P43405); assay: Kinase inhibition assay, SYK; type: biochemical; details: biochemical potency;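 further: purified full-length human SYK pre-incubated 30 min with compound, then ULight-TK peptide phosphorylation for 1 h, detected with Europium-labeled antibody in Lance buffer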
T1 construct: Purified human, full-length SYK, KDR; purchased Carna Biosciences

EGFR mutant T790M = molecular target: T2, EGFR mutant T790M (Homo sapiens, UniProt P00533, T790M); assay: Kinase inhibition assay, EGFR mutant T790M; details: biochemical potency;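 further: truncated human EGFR mutant enzyme preincubated two hours with compound, then ATP plus ULight-PolyGT peptide for one hour, Europium-labeled antibody LANCE detection, IC50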
T2 construct: truncated human JAK3, EGFR mutants such as del E746-A750; purchased Carna Biosciences

[1] = molecular target: T3, EGFR mutant Del19 (E746-A750) (Homo sapiens, UniProt P00533, DEL746-750); assay: Kinase inhibition assay, EGFR del E746-A750; type: biochemical; details: read-out: EGFR mutants Del19 (E746-A750);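 further: truncated human EGFR mutant kinase, two-hour preincubation with compound, then one-hour reaction with ATP and ULight-PolyGT peptide, LANCE Europium-antibody phosphorylation readout, IC50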
T3 construct: truncated human JAK3, EGFR mutants such as del E746-A750; purchased Carna Biosciences

EGFR mutant L858R = molecular target: T4, EGFR mutant L858R (Homo sapiens, UniProt P00533, L858R); assay: Kinase inhibition assay, EGFR L858R; type: biochemical; details: read-out: EGFR mutants L858R;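 further: truncated human EGFR L858R kinase with compound preincubation, ULight-PolyGT peptide phosphorylation read by Europium-antibody Lance detection, IC50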
T4 construct: truncated human JAK3, EGFR mutants such as del E746-A750; purchased Carna Biosciences

EGFR mutant Del19/T790M = molecular target: T5, EGFR mutant Del19/T790M (Homo sapiens, UniProt P00533, DEL746-750/T790M); assay: Kinase inhibition assay, EGFR del E746-A750/T790M; type: biochemical; details: read-out: EGFR mutants Del19/T790M
T5 construct: truncated human JAK3, EGFR mutants such as del E746-A750; purchased Carna Biosciences

EGFR mutant L858R/T790M = molecular target: T6, EGFR mutant L858R/T790M (Homo sapiens, UniProt P00533, L858R/T790M); assay: Kinase inhibition assay, EGFR L858R/T790M; type: biochemical; details: read-out: EGFR mutants L858R/T790M;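 further: truncated human enzyme preincubated two hours with compound, then one hour with one millimolar ATP and ULight-PolyGT peptide, Europium-labeled antibody detection, IC50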
T6 construct: truncated human JAK3, EGFR mutants such as del E746-A750; purchased Carna Biosciences
T6 sequence (P00533 669-1210 T790M/L858R limits assumed): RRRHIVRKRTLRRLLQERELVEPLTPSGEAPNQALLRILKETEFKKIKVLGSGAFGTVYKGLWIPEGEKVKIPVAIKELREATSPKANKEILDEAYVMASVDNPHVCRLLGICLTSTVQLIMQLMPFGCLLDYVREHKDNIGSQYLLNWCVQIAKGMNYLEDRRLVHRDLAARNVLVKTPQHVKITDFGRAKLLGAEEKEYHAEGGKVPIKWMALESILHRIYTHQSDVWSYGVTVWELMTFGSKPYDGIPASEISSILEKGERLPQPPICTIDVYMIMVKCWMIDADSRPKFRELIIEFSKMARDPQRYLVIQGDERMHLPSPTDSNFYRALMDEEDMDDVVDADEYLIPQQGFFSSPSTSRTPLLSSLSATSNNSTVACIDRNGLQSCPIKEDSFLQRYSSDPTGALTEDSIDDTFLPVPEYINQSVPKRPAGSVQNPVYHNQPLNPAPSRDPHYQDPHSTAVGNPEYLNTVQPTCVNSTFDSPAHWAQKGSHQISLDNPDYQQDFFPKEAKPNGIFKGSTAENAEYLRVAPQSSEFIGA

T2 sequence (P00533 669-1210 T790M limits assumed): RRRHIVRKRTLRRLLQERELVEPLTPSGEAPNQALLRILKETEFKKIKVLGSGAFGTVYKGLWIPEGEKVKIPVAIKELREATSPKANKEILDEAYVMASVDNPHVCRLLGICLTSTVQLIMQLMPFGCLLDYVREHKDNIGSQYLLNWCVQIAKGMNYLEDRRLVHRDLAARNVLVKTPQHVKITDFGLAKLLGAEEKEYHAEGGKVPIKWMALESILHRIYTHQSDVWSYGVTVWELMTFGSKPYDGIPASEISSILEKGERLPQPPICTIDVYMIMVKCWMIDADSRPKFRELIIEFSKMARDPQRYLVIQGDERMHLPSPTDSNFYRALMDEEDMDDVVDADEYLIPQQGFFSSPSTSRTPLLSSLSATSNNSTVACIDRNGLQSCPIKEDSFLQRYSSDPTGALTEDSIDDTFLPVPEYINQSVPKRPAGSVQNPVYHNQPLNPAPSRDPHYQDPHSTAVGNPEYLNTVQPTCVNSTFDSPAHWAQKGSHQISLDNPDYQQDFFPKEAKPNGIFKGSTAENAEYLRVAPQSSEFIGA
T4 sequence (P00533 669-1210 L858R limits assumed): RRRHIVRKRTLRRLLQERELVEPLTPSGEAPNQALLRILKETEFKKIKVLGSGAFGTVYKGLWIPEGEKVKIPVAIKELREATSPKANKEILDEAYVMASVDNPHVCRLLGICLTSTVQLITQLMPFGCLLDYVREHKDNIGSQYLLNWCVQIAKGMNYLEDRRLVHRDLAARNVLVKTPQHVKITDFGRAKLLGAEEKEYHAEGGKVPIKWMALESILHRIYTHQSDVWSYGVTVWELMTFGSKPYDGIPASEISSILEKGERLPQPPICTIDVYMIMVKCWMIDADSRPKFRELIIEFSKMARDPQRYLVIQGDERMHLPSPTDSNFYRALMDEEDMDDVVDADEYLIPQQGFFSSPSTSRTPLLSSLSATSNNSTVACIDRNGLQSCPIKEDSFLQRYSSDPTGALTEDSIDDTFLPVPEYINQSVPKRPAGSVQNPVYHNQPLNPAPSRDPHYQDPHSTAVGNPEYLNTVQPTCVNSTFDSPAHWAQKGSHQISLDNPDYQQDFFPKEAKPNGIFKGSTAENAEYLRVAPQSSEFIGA
T3 sequence (P00533 with tags, fused parts or gaps DEL746-750 limits assumed): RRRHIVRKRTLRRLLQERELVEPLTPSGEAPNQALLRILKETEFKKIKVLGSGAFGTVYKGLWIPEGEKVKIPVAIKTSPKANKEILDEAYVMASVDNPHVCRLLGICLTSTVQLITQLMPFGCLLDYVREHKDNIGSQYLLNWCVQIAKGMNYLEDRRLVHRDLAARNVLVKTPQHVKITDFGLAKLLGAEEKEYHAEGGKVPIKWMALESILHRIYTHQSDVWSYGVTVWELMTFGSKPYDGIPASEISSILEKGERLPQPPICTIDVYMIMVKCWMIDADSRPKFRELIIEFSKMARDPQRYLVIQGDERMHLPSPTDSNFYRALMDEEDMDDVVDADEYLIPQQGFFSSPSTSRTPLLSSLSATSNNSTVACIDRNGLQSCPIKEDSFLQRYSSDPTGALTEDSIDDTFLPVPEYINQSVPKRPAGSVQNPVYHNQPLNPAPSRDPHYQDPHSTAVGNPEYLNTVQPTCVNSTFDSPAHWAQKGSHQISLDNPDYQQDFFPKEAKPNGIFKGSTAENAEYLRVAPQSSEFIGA
T5 sequence (P00533 with tags, fused parts or gaps DEL746-750/T790M limits assumed): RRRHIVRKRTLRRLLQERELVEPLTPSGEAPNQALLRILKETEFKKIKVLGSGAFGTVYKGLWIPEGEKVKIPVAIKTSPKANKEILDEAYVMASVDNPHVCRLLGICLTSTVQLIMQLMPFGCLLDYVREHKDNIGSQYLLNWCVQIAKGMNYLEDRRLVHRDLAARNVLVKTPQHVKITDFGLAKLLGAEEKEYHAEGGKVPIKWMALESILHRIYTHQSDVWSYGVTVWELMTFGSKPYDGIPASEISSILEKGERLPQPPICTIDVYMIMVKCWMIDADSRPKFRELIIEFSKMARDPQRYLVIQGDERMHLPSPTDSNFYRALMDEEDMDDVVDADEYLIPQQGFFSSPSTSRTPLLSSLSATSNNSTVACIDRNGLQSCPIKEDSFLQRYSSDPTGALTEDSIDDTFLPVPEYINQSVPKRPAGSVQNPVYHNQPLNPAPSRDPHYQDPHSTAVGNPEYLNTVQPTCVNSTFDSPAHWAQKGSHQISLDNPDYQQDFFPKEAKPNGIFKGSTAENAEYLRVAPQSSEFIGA

| Structure (SMILES) | IC50 (SYK) [nM] | IC50 (EGFR mutant T790M) [nM] | IC50 [1] [nM] | IC50 (EGFR mutant L858R) [nM] | IC50 (EGFR mutant Del19/T790M) [nM] | IC50 (EGFR mutant L858R/T790M) [nM] |
| --- | --- | --- | --- | --- | --- | --- |
| C=CC(=O)Nc1cc(Nc2nccc(-n3cc(CN(C)C)c(-c4ccc(F)cc4)n3)n2)c(OC)cc1N1CCOCC1 [Compound 6, N-(5-(4-(4-((dimethylamino)methyl)-3-(4-fluorophenyl)-1H-pyrazol-1-yl)pyrimidin-2-ylamino)-4-methoxy-2-morpholinophenyl)acrylamide] | > 1000 | 20 to 200 | 20 to 200 | 20 to 200 | < 20 | < 20 |
| C=CC(=O)Nc1cc(Nc2ncc(C)c(-n3cc(CN(C)C)c(C(C)(C)C)n3)n2)c(OC)cc1N1CCOCC1 [Compound 7, N-(5-(4-(3-tert-butyl-4-((dimethylamino)methyl)-1H-pyrazol-1-yl)-5-methylpyrimidin-2-ylamino)-4-methoxy-2-morpholinophenyl)acrylamide] | > 1000 | < 20 | < 20 | < 20 | < 20 | < 20 |
| C=CC(=O)Nc1cc(Nc2nccc(-n3cc(CN4CC(O)C4)c(C)n3)n2)c(OC)cc1N1CCOCC1 [Compound 15, N-(5-(4-(4-((3-hydroxyazetidin-1-yl)methyl)-3-methyl-1H-pyrazol-1-yl)pyrimidin-2-ylamino)-4-methoxy-2-morpholinophenyl)acrylamide] | 201 to 1000 | < 20 | < 20 | < 20 | < 20 | < 20 |
| C=CC(=O)Nc1cc(Nc2ncc(C)c(-n3cc(CN4C[C@H](O)[C@H](OC)C4)cn3)n2)c(OC)cc1N1CCOCC1 [Compound 21, N-(5-(4-(4-(((3S,4R)-3-hydroxy-4-methoxypyrrolidin-1-yl)methyl)-1H-pyrazol-1-yl)-5-methylpyrimidin-2-ylamino)-4-methoxy-2-morpholinophenyl)acrylamide] | 201 to 1000 | < 20 | < 20 | 20 to 200 | < 20 | < 20 |
| C=CC(=O)Nc1cc(Nc2ncc(C)c(-n3cc(CN(C)C)cn3)n2)c(OC)cc1N1CCOCC1 [Compound 22, N-(5-(4-(4-((dimethylamino)methyl)-1H-pyrazol-1-yl)-5-methylpyrimidin-2-ylamino)-4-methoxy-2-morpholinophenyl)acrylamide] | 20 to 200 | < 20 | < 20 | 20 to 200 | < 20 | < 20 |
| C=CC(=O)Nc1cc(Nc2ncc(C)c(-n3cc(CN4CC[C@H](O)C4)c(C)n3)n2)c(OC)cc1N1CCOCC1 [Compound 28, (S)—N-(5-(4-(4-((3-hydroxypyrrolidin-1-yl)methyl)-3-methyl-1H-pyrazol-1-yl)-5-methylpyrimidin-2-ylamino)-4-methoxy-2-morpholinophenyl)acrylamide] | 201 to 1000 | < 20 | < 20 | < 20 | < 20 | < 20 |
| C=CC(=O)Nc1cc(Nc2ncc(C)c(-n3cc(CN4CC(O)C4)c(C)n3)n2)c(OC)cc1N1CCCCC1 [Compound 30, N-(5-(4-(4-((3-hydroxyazetidin-1-yl)methyl)-3-methyl-1H-pyrazol-1-yl)-5-methylpyrimidin-2-ylamino)-4-methoxy-2-(piperidin-1-yl)phenyl)acrylamide] | 20 to 200 | < 20 | < 20 | < 20 | < 20 | < 20 |
| C=CC(=O)Nc1cc(Nc2ncc(C)c(-n3cc(CN4CC(O)C4)c(C)n3)n2)c(OC)cc1N(C)CCN(C)C [Compound 31, N-(2-((2-(dimethylamino)ethyl)(methyl)amino)-5-(4-(4-((3-hydroxyazetidin-1-yl)methyl)-3-methyl-1H-pyrazol-1-yl)-5-methylpyrimidin-2-ylamino)-4-methoxyphenyl)acrylamide] | 20 to 200 | < 20 | < 20 | < 20 | < 20 | < 20 |
| C=CC(=O)Nc1cc(Nc2ncc(C)c(-n3cc(CN4CCOCC4)cn3)n2)c(OC)cc1N1CCN(C)CC1 [Compound 33, N-(4-methoxy-5-(5-methyl-4-(4-(morpholinomethyl)-1H-pyrazol-1-yl)pyrimidin-2-ylamino)-2-(4-methylpiperazin-1-yl)phenyl)acrylamide] | > 1000 | < 20 | 20 to 200 | 20 to 200 | < 20 | 20 to 200 |
| C=CC(=O)Nc1cc(Nc2ncc(C)c(-n3cc(CN4CCC4)cn3)n2)c(OC)cc1N1CCN(C(C)=O)CC1 [Compound 37, N-(2-(4-acetylpiperazin-1-yl)-5-(4-(4-(azetidin-1-ylmethyl)-1H-pyrazol-1-yl)-5-methylpyrimidin-2-ylamino)-4-methoxyphenyl)acrylamide] | 201 to 1000 | < 20 | < 20 | < 20 | < 20 | < 20 |
| C=CC(=O)Nc1cc(Nc2nccc(-n3cc(CN4CCC4)cn3)n2)c(OC)cc1N(C)C [Compound 38, N-(5-(4-(4-(azetidin-1-ylmethyl)-1H-pyrazol-1-yl)pyrimidin-2-ylamino)-2-(dimethylamino)-4-methoxyphenyl)acrylamide] | > 1000 | < 20 | < 20 | < 20 | 20 to 200 | < 20 |
| C=CC(=O)Nc1cc(Nc2ncc(C)c(-n3cc(CN4CCC4)cn3)n2)c(OC)cc1N1CCCN(C)CC1 [Compound 41, N-(5-(4-(4-(azetidin-1-ylmethyl)-1H-pyrazol-1-yl)-5-methylpyrimidin-2-ylamino)-4-methoxy-2-(4-methyl-1,4-diazepan-1-yl)phenyl)acrylamide] | 201 to 1000 | < 20 | < 20 | < 20 | < 20 | < 20 |
| C=CC(=O)Nc1cc(Nc2ncc(C)c(-n3cc(CN4C[C@H](O)[C@H](OC)C4)cn3)n2)c(OC)cc1N(C)CCN(C)C [Compound 43, N-(2-((2-(dimethylamino)ethyl)(methyl)amino)-5-(4-(4-(((3S,4R)-3-hydroxy-4-methoxypyrrolidin-1-yl)methyl)-1H-pyrazol-1-yl)-5-methylpyrimidin-2-ylamino)-4-methoxyphenyl)acrylamide] | > 1000 | < 20 | < 20 | < 20 | < 20 | < 20 |
| C=CC(=O)Nc1cc(Nc2nccc(-n3cc(CN4CC(OC)C4)c(C)n3)n2)c(OC)cc1N1CCOCC1 [Compound 44, N-(4-methoxy-5-(4-(4-((3-methoxyazetidin-1-yl)methyl)-3-methyl-1H-pyrazol-1-yl)pyrimidin-2-ylamino)-2-morpholinophenyl)acrylamide] | > 1000 | 201 to 1000 | 20 to 200 | 20 to 200 | 20 to 200 | 20 to 200 |
| C=CC(=O)Nc1cc(Nc2nccc(-n3cc(CN4C[C@H](O)[C@H](OC)C4)c(C)n3)n2)c(OC)cc1N1CCOCC1 [Compound 45, N-(5-(4-(4-(((3S,4R)-3-hydroxy-4-methoxypyrrolidin-1-yl)methyl)-3-methyl-1H-pyrazol-1-yl)pyrimidin-2-ylamino)-4-methoxy-2-morpholinophenyl)acrylamide] | > 1000 | 20 to 200 | < 20 | 20 to 200 | < 20 | < 20 |
| C=CC(=O)Nc1cc(Nc2ncc(Cl)c(-n3cc(CN4C[C@H](O)[C@H](OC)C4)c(C)n3)n2)c(OC)cc1N1CCOCC1 [Compound 51, N-(5-(5-chloro-4-(4-(((3S,4R)-3-hydroxy-4-methoxypyrrolidin-1-yl)methyl)-3-methyl-1H-pyrazol-1-yl)pyrimidin-2-ylamino)-4-methoxy-2-morpholinophenyl)acrylamide] | > 1000 | < 20 | 20 to 200 | 20 to 200 | < 20 | < 20 |
| C=CC(=O)Nc1cc(Nc2ncc(Cl)c(-n3cc(CN(C)C)c(C)n3)n2)c(OC)cc1N1CCOCC1 [Compound 52, N-(5-(5-chloro-4-(4-((dimethylamino)methyl)-3-methyl-1H-pyrazol-1-yl)pyrimidin-2-ylamino)-4-methoxy-2-morpholinophenyl)acrylamide] | 201 to 1000 | < 20 | < 20 | < 20 | < 20 | < 20 |
| C=CC(=O)Nc1cc(Nc2nccc(-n3cc(CN4C[C@H](O)[C@H](OC)C4)c(C4CC4)n3)n2)c(OC)cc1N1CCOCC1 [Compound 56, N-(5-(4-(3-cyclopropyl-4-(((3S,4R)-3-hydroxy-4-methoxypyrrolidin-1-yl)methyl)-1H-pyrazol-1-yl)pyrimidin-2-ylamino)-4-methoxy-2-morpholinophenyl)acrylamide] | > 1000 | < 20 | < 20 | < 20 | < 20 | < 20 |
| C=CC(=O)Nc1cc(Nc2ncc(F)c(-n3cc(C)c(CN4CCC4)c3)n2)c(OC)cc1N(C)C [Compound 142, N-(5-(4-(3-(azetidin-1-ylmethyl)-4-methyl-1H-pyrrol-1-yl)-5-fluoropyrimidin-2-ylamino)-2-(dimethylamino)-4-methoxyphenyl)acrylamide] | 201 to 1000 |  | < 20 | < 20 | < 20 | < 20 |
